Assay results reported in patent publication US20200129524A1, “PERSONALIZED CONTRACEPTIVE FORMULATIONS” (Agile Therapeutics, Inc., priority 2017, published 2020).
“And” between values parts separate entries of the source, which are not always exact repeats. Equal entries are not always repeated.

What was measured:
[1] = Free LNG circulating in plasma versus EE delivered (WO2016187269)
Protocol: However, ethinyl estradiol binds to SHBG and in the process it releases some of the bound LNG. Therefore if more or less than about 30 μg of EE are delivered from the contraceptive formulation, the required levels shown in FIGS. 3, 3a and 3b will have to be modified accordingly. […] Therefore the levels of required LNG can be calculated for any level of accompanied EE.

healthy women = assay: LNG level and required dose calculated from the trial's pregnancy rates (equations 2-4); format: in vivo; settings: for LNG Level / Required Dose: 30 μg/day EE; for LNG Required Dose: range for pregnancy rates between 3% and 1.5%, EE 30 ug/day
Text: There is an important unmet need pertaining to the determination of the amount of progestin required to provide contraceptive effectiveness to all women based on their BMI or body weight. Without intending to be bound to a particular understanding of mechanism of action, this invention is premised in part on the understanding that contraceptive effectiveness is based on the principle that there is a physical reaction or binding of a drug to its receptor and that therefore drug concentration will play an important part in contraceptive effectiveness. Further, by knowing the effect of a progestin amount (drug concentration) on contraceptive effectiveness on different BMI or body weight women, we can determine the amounts needed to provide effectiveness for any woman of known BMI or body weight. Given that contraceptive hormones interact reversibly with their receptors and assuming the resultant effect is proportional to the receptors occupied, a relationship between the effect and the free concentration of drug can be written as (Goodman and Gilman's Pharmaceutical Basis of Therapeutics, 8th edition, p. 44) Effect=Maximal effect (D)/(Kd+D) (equation 1) Where D is the concentration of the circulating free drug and Kd is the dissociation constant for the drug-drug receptor complex, i.e., the ratio of the rate constants of the forward and dissociation binding reactions. The steady state concentration D of the circulating free drug in the plasma is correlated to the dosage rate, by the equation (Goodman and Gilman's Pharmaceutical Basis of Therapeutics, 8th edition, p. 21), Dosage Rate=CL×D (CL is the clearance and it is constant for any specific drug). Therefore D=Dosage rate/CL. Substituting this in equation 1 one obtains Effect=Maximal effect×Dosage rate/CL/(Kd+Dosage rate/CL) (equation 2) […] Note that when equation 3 is substituted into equation 2 the clearance CL cancels out and is not involved in the calculations. Using the above formulas and isolating for D yields this equation: D=(Kd*Effect)/(1−Effect) (equation 4) […] They represent the relative dosage compared to that of the women in the 90 to 120 pound category (i.e. those that had 1.5% pregnancy rate). […] Therefore, D=(1.827*0.973)/(0.027) (equation 5) D=67 μg/day (equation 6) Required Dose=120×120/67=215 (equation 7). We consider the maximum acceptable percent pregnancy for 100 women over a period of one year to be 3%. […] The same analysis can be performed using the BMI of the women. […] The same analysis as performed for the required dosage based on women's body weight was performed using BMI and the data are shown in Tables 4 and 5 and plotted in FIG. 4. Although it may be easier for the medical practitioner to use the body weight of the subject in the treatment process, they can also use the BMI. It is therefore another object of the invention to treat women in a personalized manner depending on their BMI.

[2] = 1.5% pregnancy rate, BMI >17.5 ≤ 22.5
[3] = 1.5% pregnancy rate, BMI >22.5 ≤ 27.5
[4] = 1.5% pregnancy rate, BMI >27.5 ≤ 32.5
[5] = 1.5% pregnancy rate, BMI >32.5 ≤ 37.5
[6] = 1.5% pregnancy rate, BMI >37.5 ≤ 42.5
[7] = 1.5% pregnancy rate, BMI >42.5 ≤ 47.5
[8] = 1.5% pregnancy rate, BMI >47.5 ≤ 52.5
[9] = 1.5% pregnancy rate, weight 90 ≥ W <120 lbs
[10] = 1.5% pregnancy rate, weight 120 ≥ W <150 lbs
[11] = 1.5% pregnancy rate, weight 150 ≥ W <180 lbs
[12] = 1.5% pregnancy rate, weight 180 ≥ W <210 lbs
[13] = 1.5% pregnancy rate, weight 210 ≥ W <240 lbs
[14] = 1.5% pregnancy rate, weight 240 ≥ W <270 lbs
[15] = 1.5% pregnancy rate, weight 270 ≥ W lbs
[16] = 3% pregnancy rate, BMI >17.5 ≤ 22.5
[17] = 3% pregnancy rate, BMI >22.5 ≤ 27.5
[18] = 3% pregnancy rate, BMI >27.5 ≤ 32.5
[19] = 3% pregnancy rate, BMI >32.5 ≤ 37.5
[20] = 3% pregnancy rate, BMI >37.5 ≤ 42.5
[21] = 3% pregnancy rate, BMI >42.5 ≤ 47.5
[22] = 3% pregnancy rate, BMI >47.5 ≤ 52.5
[23] = 3% pregnancy rate, weight 90 ≥ W <120 lbs
[24] = 3% pregnancy rate, weight 120 ≥ W <150 lbs
[25] = 3% pregnancy rate, weight 150 ≥ W <180 lbs
[26] = 3% pregnancy rate, weight 180 ≥ W <210 lbs
[27] = 3% pregnancy rate, weight 210 ≥ W <240 lbs
[28] = 3% pregnancy rate, weight 240 ≥ W <270 lbs
[29] = 3% pregnancy rate, weight 270 ≥ W lbs

increase of free LNG as share of the approximate steady state level ([1]; for every 10 μg per day of EE delivered): 20%
change of free LNG in the plasma ([1]; for every one μg per day reduction or increase of EE below or above 30 μg per day): 30 picograms per ml
SMILES: C#C[C@]1(O)CC[C@H]2[C@@H]3CCC4=CC(=O)CC[C@@H]4[C@H]3CC[C@@]21CC [LNG, levonorgestrel]
LNG Level (healthy women; [2]): 74.7 µg/day
Required Dose (healthy women; [2]): 192 µg/day
LNG Level (healthy women; [3]): 52.7 µg/day
Required Dose (healthy women; [3]): 273 µg/day
LNG Level (healthy women; [4]): 67.1 µg/day
Required Dose (healthy women; [4]): 215 µg/day
LNG Level (healthy women; [5]): 41.1 µg/day
Required Dose (healthy women; [5]): 350 µg/day
LNG Level (healthy women; [6]): 26.6 µg/day
Required Dose (healthy women; [6]): 541 µg/day
LNG Level (healthy women; [7]): 38.9 µg/day
Required Dose (healthy women; [7]): 370 µg/day
LNG Level (healthy women; [8]): 25.6 µg/day
Required Dose (healthy women; [8]): 563 µg/day
LNG Level (healthy women; [9]): 120.0 µg/day
Required Dose (healthy women; [9]): 120 µg/day
LNG Level (healthy women; [10]): 67 µg/day and 66.9 µg/day
Required Dose (healthy women; [10]): 215 µg/day and 210 µg/day
LNG Level (healthy women; [11]): 46.1 µg/day
Required Dose (healthy women; [11]): 312 µg/day
LNG Level (healthy women; [12]): 39.6 µg/day
Required Dose (healthy women; [12]): 364 µg/day
LNG Level (healthy women; [13]): 45.4 µg/day
Required Dose (healthy women; [13]): 317 µg/day
LNG Level (healthy women; [14]): 31.5 µg/day
Required Dose (healthy women; [14]): 457 µg/day
LNG Level (healthy women; [15]): 34.1 µg/day
Required Dose (healthy women; [15]): 422 µg/day
LNG Level (healthy women; [16]): 152.0 µg/day
Required Dose (healthy women; [16]): 95 µg/day
LNG Level (healthy women; [17]): 106.9 µg/day
Required Dose (healthy women; [17]): 135 µg/day
LNG Level (healthy women; [18]): 136.1 µg/day
Required Dose (healthy women; [18]): 106 µg/day
LNG Level (healthy women; [19]): 83.3 µg/day
Required Dose (healthy women; [19]): 173 µg/day
LNG Level (healthy women; [20]): 53.8 µg/day
Required Dose (healthy women; [20]): 267 µg/day
LNG Level (healthy women; [21]): 79 µg/day
Required Dose (healthy women; [21]): 182 µg/day
LNG Level (healthy women; [22]): 51.8 µg/day
Required Dose (healthy women; [22]): 278 µg/day
LNG Level (healthy women; [23]): 241.7 µg/day
Required Dose (healthy women; [23]): 59 µg/day
LNG Level (healthy women; [24]): 135.6 µg/day
Required Dose (healthy women; [24]): 104 µg/day
LNG Level (healthy women; [25]): 93.5 µg/day
Required Dose (healthy women; [25]): 154 µg/day
LNG Level (healthy women; [26]): 80.3 µg/day
Required Dose (healthy women; [26]): 179 µg/day
LNG Level (healthy women; [27]): 92.0 µg/day
Required Dose (healthy women; [27]): 156 µg/day
LNG Level (healthy women; [28]): 63.8 µg/day
Required Dose (healthy women; [28]): 226 µg/day
LNG Level (healthy women; [29]): 69.2 µg/day
Required Dose (healthy women; [29]): 208 µg/day
LNG Required Dose (healthy women; BMI >17.5 ≤ 22.5): 95 to 192 µg/day
LNG Required Dose (healthy women; BMI >22.5 ≤ 27.5): 135 to 273 µg/day
LNG Required Dose (healthy women; BMI >27.5 ≤ 32.5): 106 to 215 µg/day
LNG Required Dose (healthy women; BMI >32.5 ≤ 37.5): 173 to 350 µg/day
LNG Required Dose (healthy women; BMI >37.5 ≤ 42.5): 267 to 541 µg/day
LNG Required Dose (healthy women; BMI >42.5 ≤ 47.5): 182 to 370 µg/day
LNG Required Dose (healthy women; BMI >47.5 ≤ 52.5): 278 to 563 µg/day
